The source of these data is US10123993B2, “Cyclic ureas as inhibitors of rock” (BRISTOL-MYERS SQUIBB COMPANY, priority 2015, dated 2018).

A value given as a limit tells only on which side of the number the result lay.

Chain of ROCK2 (O75116 whole entry, species assumed): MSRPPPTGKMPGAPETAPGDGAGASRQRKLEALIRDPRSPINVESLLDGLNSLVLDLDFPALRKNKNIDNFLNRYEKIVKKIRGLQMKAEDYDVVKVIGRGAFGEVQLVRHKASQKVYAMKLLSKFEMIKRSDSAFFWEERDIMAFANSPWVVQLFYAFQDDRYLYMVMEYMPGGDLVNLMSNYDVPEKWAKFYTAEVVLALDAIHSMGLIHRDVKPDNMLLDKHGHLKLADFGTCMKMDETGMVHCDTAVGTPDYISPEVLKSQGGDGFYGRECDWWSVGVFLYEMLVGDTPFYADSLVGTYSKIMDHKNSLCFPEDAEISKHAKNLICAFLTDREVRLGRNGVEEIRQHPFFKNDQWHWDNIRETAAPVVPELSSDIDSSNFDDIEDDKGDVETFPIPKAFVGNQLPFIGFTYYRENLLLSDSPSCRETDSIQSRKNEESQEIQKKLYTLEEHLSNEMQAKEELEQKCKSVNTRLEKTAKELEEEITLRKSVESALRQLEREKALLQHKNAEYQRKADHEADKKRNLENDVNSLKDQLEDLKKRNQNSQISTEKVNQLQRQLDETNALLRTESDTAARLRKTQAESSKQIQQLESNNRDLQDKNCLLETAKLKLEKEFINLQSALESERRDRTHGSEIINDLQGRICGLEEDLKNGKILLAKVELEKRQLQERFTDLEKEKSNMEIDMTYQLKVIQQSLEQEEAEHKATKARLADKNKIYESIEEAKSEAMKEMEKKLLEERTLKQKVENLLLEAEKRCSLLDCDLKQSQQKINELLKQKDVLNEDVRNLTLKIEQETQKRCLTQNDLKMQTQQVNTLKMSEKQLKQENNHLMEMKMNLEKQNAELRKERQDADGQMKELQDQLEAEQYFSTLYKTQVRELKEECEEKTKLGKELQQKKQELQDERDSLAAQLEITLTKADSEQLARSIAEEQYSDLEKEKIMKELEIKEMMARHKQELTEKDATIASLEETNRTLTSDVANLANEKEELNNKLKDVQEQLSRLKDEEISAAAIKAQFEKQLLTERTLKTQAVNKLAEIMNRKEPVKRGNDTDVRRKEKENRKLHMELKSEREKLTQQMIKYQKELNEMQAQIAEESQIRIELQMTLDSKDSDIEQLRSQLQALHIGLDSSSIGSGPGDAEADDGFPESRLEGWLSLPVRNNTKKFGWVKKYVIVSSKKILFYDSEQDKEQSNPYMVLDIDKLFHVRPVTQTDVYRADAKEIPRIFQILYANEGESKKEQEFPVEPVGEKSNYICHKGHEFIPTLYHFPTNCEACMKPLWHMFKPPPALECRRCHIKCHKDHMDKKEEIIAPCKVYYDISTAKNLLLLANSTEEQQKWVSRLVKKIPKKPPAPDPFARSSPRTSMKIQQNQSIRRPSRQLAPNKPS

For one assay, the system named is IL-1 beta-induced coronary stenosis.
Test: not given
The settings on record: long term treatment; cited from earlier work.
`O=S(=O)(c1cccc2cnccc12)N1CCCNCC1` [fasudil]: the coronary constrictive remodeling result is reported as “promote a regression of coronary constrictive remodeling” and the coronary stenosis result is recorded as “progressively reduce coronary stenosis”.

In another assay the test system is neointimal formation in rats.
Test: not given
The settings on record: cited from earlier work.
Turning to `C[C@@H](N)[C@H]1CC[C@H](C(=O)Nc2ccncc2)CC1` [Example Y-27632], the neointimal formation entry is given as “inhibited neointimal formation”.

The next assay deals with Dahl salt-sensitive rats.
Test: not given
The conditions noted are these: rat, in vivo; cited from earlier work.
With `C[C@@H](N)[C@H]1CC[C@H](C(=O)Nc2ccncc2)CC1` [Example Y-27632], the “ventricular hypertrophy, fibrosis and function” value is “improve ventricular hypertrophy, fibrosis and function”.

The next assay deals with rat stroke model.
Test: not given
The settings on record: in vivo; cited from earlier work.
Take `O=S(=O)(c1cccc2cnccc12)N1CCCNCC1` [fasudil]: the “infarct size and neurologic deficit” value was “reduce both the infarct size and neurologic deficit”.

The next assay concerns the target ROCK2 (Homo sapiens, UniProt O75116). The assay is described as follows: ROCK2 kinase inhibition assay (Caliper LABCHIP, FITC peptide substrate). Type of assay: biochemical. The settings on record: 5 μM ATP, 1.5 μM peptide substrate; value ranges. The method in brief: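 Dose-response curves gave IC50 from inhibition of peptide phosphorylation, measured by LabChip separation after EDTA stop. Reactions used 1.5 μM FITC-labelled peptide, 5 μM ATP, 20 mM HEPES pH 7.5 with MgCl2, Brij-35, DTT, and under 2% DMSO.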
As a reminder, the IC50 is the concentration needed to halve the response being measured. Lower therefore signals greater potency. `COc1cccc(F)c1CN1CCN(c2ccc(-c3cn[nH]c3)c(F)c2)C1=O` [Example 431, 1-(3-fluoro-4-(1H-pyrazol-4-yl)phenyl)-3-(2-fluoro-6-methoxybenzyl)imidazolidin-2-one]: the half-inhibitory concentration (IC50) was 20.1 to 200 nM.

As to `COc1cc(CN2CCN(c3ccc(-c4cn[nH]c4)cn3)C2=O)ccc1F` [Example 429, 1-(5-(1H-pyrazol-4-yl)pyridin-2-yl)-3-(4-fluoro-3-methoxybenzyl)imidazolidin-2-one], the half-inhibitory concentration (IC50) lay in the range of 2.1 to 20 nM.

`CCc1nc(N2CCN(Cc3cccc(OC)c3)C2=O)ccc1-c1cn[nH]c1` [Example 167, 1-(6-ethyl-5-(1H-pyrazol-4-yl)pyridin-2-yl)-3-(3-methoxy-benzyl) imidazolidin-2-one] registered an IC50 of under 2 nM.

For the compound `COc1cc(C(C)N2CCN(c3ccc(-c4cn[nH]c4)c(C)n3)C2=O)ccc1F` (single isomer, unassigned) [Example 208, 1-(1-(4-fluoro-3-methoxyphenyl)ethyl)-3-(6-methyl-5-(1H-pyrazol-4-yl)pyridin-2-yl)imidazolidin-2-one], the IC50 fell in the range of 200 to 2000 nM.

`CCc1nc(N2CCN(C(CO)c3cccc(OC)c3)C2=O)ccc1-c1cn[nH]c1` (single isomer, unassigned) [Example 159, 1-(6-ethyl-5-(1H-pyrazol-4-yl)pyridin-2-yl)-3-(2-hydroxy-1-(3-methoxy-phenyl)ethyl) imidazolidin-2-one]: the IC50 was under 2 nM.

`O=C1N(Cc2cccc(OCC3CC3)c2)CCN1c1ccc(-c2cn[nH]c2)cn1` [Example 438, 1-(5-(1H-pyrazol-4-yl)pyridin-2-yl)-3-(3-(cyclopropylmethoxy)benzyl)imidazolidin-2-one] registered an IC50 of 20.1 to 200 nM.

`O=c1n(Cc2cccnc2)ccn1-c1ccc(-c2cn[nH]c2)cc1` [Example 410, 1-(4-(1H-pyrazol-4-yl)phenyl)-3-(pyridin-3-ylmethyl)-1H-imidazol-2(3H)-one]: the IC50 is 20.1 to 200 nM.

In the case of `O=c1n(Cc2ccccc2F)ccn1-c1ccc(-c2cn[nH]c2)cc1` [Example 69, 1-(4-(1H-pyrazol-4-yl)phenyl)-3-(2-fluorobenzyl)-1H-imidazol-2(3H)-one], the IC50 fell in the range of 20.1 to 200 nM.

For the compound `COc1cccc(C(C)N2CCN(c3ccc(-c4cn[nH]c4)c(C)c3)C2=O)c1` (single isomer, unassigned) [Example 192, 1-(1-(3-methoxy-phenyl)-ethyl)-3-(3-methyl-4-(1H-pyrazol-4-yl)phenyl) imidazolidin-2-one], the IC50 was 200 to 2000 nM.

For `COc1cccc(C(CO)N2CCN(c3ccc(-c4cn[nH]c4)c(C)c3)C2=O)c1` (single isomer, unassigned) [Example 164, 1-(2-hydroxy-1-(3-methoxy-phenyl)ethyl)-3-(3-methyl-4-(1H-pyrazol-4-yl)phenyl) imidazolidin-2-one], the IC50 was in the range of 200 to 2000 nM.

Regarding `COc1ccc(F)cc1CN1CCN(c2ccc(-c3cn[nH]c3)c(OC)n2)C1=O` [Example 222, 1-(5-fluoro-2-methoxybenzyl)-3-(6-methoxy-5-(1H-pyrazol-4-yl)pyridin-2-yl)imidazolidin-2-one], the IC50 was in the range of 2.1 to 20 nM.

On to `COc1nc(N2CCN(Cc3cccnc3)C2=O)ccc1-c1cn[nH]c1` [Example 253], for which the IC50 fell in the range of 2.1 to 20 nM.

Compound `O=C1N(Cc2ccc(F)c(F)c2)CCN1c1ccc(-c2cn[nH]c2)cn1` [Example 238, 1-(5-(1H-pyrazol-4-yl)pyridin-2-yl)-3-(3,4-difluorobenzyl)imidazolidin-2-one] gave an IC50 of 200 to 2000 nM.

Compound `COc1cccc(CN2C(=O)N(c3ccc(-c4cn[nH]c4)c(OC)c3)CC2CO)c1` (single isomer, unassigned) [Example 135, 4-(hydroxy-methyl)-1-(3-methoxy-4-(1H-pyrazol-4-yl)phenyl)-3-(3-methoxy-benzyl) imidazolidin-2-one] showed an IC50 of 200 to 2000 nM.

As for `COc1cccc(CN2CC(=O)N(c3ccc(-c4cn[nH]c4)cc3)C2=O)c1` [Example 80, 3-(4-(1H-Pyrazol-4-yl)phenyl)-1-(3-methoxybenzyl)imidazolidine-2,4-dione], the IC50 lay in the range of 20.1 to 200 nM.

`COc1nc(-n2ccn(Cc3ccc(F)cc3C)c2=O)ccc1-c1cn[nH]c1` [Example 381, 1-(4-fluoro-2-methylbenzyl)-3-(6-methoxy-5-(1H-pyrazol-4-yl)pyridin-2-yl)-1H-imidazol-2(3H)-one] returned a half-maximal inhibitory concentration (IC50) of 2.1 to 20 nM.

`COc1cc(F)cc(C(C)N2CCN(c3ccc(-c4cn[nH]c4)c(C)n3)C2=O)c1` (single isomer, unassigned) [Example 207, 1-(1-(3-fluoro-5-methoxyphenyl)ethyl)-3-(6-methyl-5-(1H-pyrazol-4-yl)pyridin-2-yl)imidazolidin-2-one]: the IC50 is 200 to 2000 nM.

On to `COc1cccc(C(C)N2C(=O)N(c3ccc(-c4cn[nH]c4)cc3)CC2(C)C)c1` (single isomer, unassigned) [Example 146, 1-(4-(1H-pyrazol-4-yl)phenyl)-3-(1-(3-methoxy-phenyl)-ethyl)-4,4-dimethyl-imidazolidin-2-one], for which the IC50 lay in the range of 20.1 to 200 nM.

The test system of another assay is spontaneously hypertensive rat, renal hypertensive rat and deoxycortisone acetate salt hypertensive rat models.
Test: not given
The conditions noted are these: control rats; cited from earlier work.
`C[C@@H](N)[C@H]1CC[C@H](C(=O)Nc2ccncc2)CC1` [Example Y-27632]: the blood pressure entry is “only a minor effect on blood pressure”.

Staying with this assay, now noted: three rat models of hypertension; cited from earlier work.
Consider `C[C@@H](N)[C@H]1CC[C@H](C(=O)Nc2ccncc2)CC1` [Example Y-27632], for which the blood pressure result is recorded as “significantly decrease blood pressure”.
